The term IC50 denotes the midpoint of a concentration-inhibition curve. What is called inhibition is the drop in the measured response relative to a control, in per cent.

Molecules are shown by their SMILES. Several values for one entry are separate records, joined by “and”; a condition that tells them apart may be missing. Equal entries are not always repeated.

The experiment concerns the target T1, CETP (Homo sapiens, UniProt P11597).
T1 construct: from tissue; host or cells: human plasma from normal volunteers
T1 sequence (P11597 18-493): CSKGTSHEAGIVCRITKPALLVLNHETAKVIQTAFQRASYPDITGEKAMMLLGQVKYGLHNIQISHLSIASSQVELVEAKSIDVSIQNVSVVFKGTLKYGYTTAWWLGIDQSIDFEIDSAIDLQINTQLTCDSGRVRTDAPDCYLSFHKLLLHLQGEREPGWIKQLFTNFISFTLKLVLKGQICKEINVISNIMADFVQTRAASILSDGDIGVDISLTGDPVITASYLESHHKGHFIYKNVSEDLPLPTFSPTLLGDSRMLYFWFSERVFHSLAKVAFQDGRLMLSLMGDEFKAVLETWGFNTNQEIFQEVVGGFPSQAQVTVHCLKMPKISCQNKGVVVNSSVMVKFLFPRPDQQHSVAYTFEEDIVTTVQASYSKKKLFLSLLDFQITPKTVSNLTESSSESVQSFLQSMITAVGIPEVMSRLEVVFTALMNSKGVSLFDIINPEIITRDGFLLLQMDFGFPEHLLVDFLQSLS
Nature of the experiment: CETP in vitro assay (Amersham kit TRKQ7005; modified protocol in human plasma, [3H]CE-HDL transfer). In kind it is biochemical. As to conditions: for % Inhibition @ 1 μM / inhibition at 1 µM: 1 μM compound; for IC50: from plots of % control versus compound concentration; for inhibition at 1 µM: read-out: % Inhibition @ 1 μM. The protocol:
The CETP inhibitory activity of the compounds was determined using a commercially available kit from Amersham Biosciences (Catalog #TRKQ7005).
Briefly, 80 μl of human plasma (obtained from normal volunteers), approximately 25 μg/ml (20 μl) of [^3H]CE-HDL (Amersham Biosciences from kit TRKQ7005) and 1 μl of compound dissolved in DMSO was incubated for at least 4 hrs at 37° C. and non-specific transfer was determined by incubating a corresponding plate at 4° C. (blank). After the incubation period, 10 μl of a solution of 1% Dextralip 50/0.5M MgCl2, pH 7.4 was added, vortexed and incubated at room temperature for 10 min. The plate was then centrifuged for 30 min at 10° C. at 300 rpm in a Sorvall RT6000B centrifuge. Fifty microliters of the supernatant was transferred to a Picoplate (Packard) containing 100 μl of Microscint 40 (Perkin Elmer) and mixed for 30 min using a plate mixer. The radioactivity was counted using a TopCount (Perkin Elmer) and the % control was determined in the samples using the following formula: % transfer relative to vehicle controls (% control)=[cpm blank−cpm test]/cpm blank/cpm control]×100. IC50s were calculated from plots of the % control versus compound concentration.

Regarding `OC(CN1c2cccc(-c3cccc(OC(F)(F)F)c3)c2CCC1c1cccc(C(F)(F)F)c1)C(F)(F)F` (stereo not drawn) [Compound 18, 1,1,1-Trifluoro-3-[5-(3-trifluoromethoxy-phenyl)-2-(3-trifluoromethyl-phenyl)-3,4-dihydro-2H-quinolin-1-yl]-propan-2-ol], the “% Inhibition @ 1 μM” value was 40% and 35%; the IC50 was found to be 2900 nM.

`OC(CN1c2cccc(-c3cccc(OC(F)(F)F)c3)c2CCC1c1cccc(F)c1)C(F)(F)F` (stereo not drawn) [Compound 24, 1,1,1-Trifluoro-3-[2-(3-fluoro-phenyl)-5-(3-trifluoromethoxy-phenyl)-3,4-dihydro-2H-quinolin-1-yl]-propan-2-ol]: the “% Inhibition @ 1 μM” value was 4%.

With `OC(CN1c2cccc(-c3cccc(OC(F)(F)F)c3)c2CCC1c1cccc(Cl)c1)C(F)(F)F` (stereo not drawn) [Compound 29, 3-[2-(3-Chloro-phenyl)-5-(3-trifluoromethoxy-phenyl)-3,4-dihydro-2H-quinolin-1-yl]-1,1,1-trifluoro-propan-2-ol], the “% Inhibition @ 1 μM” value was determined as 39% and the IC50 was determined as 290 nM.

Take `C[C@@H](O)CN1c2cccc(-c3cccc(OC(F)(F)F)c3)c2CC[C@@H]1c1cccc(OC(F)(F)C(F)F)c1` [Compound 70, (αR,2R)-3,4-Dihydro-α-methyl-2-[3-(1,1,2,2-tetrafluoroethoxy)phenyl]-5-[3-(trifluoromethoxy)phenyl]-1(2H)-quinolineethanol]: the “% Inhibition @ 1 μM” value is 69% and 59%; the inhibition at 1 µM came to 61%; the IC50 is 63 nM and 39 nM.

Take `OC(CN1c2cccc(-c3cccc(C(F)(F)F)c3)c2CCC1c1cccc(OC(F)(F)C(F)F)c1)C(F)(F)F` (stereo not drawn) [Compound 14]: the “% Inhibition @ 1 μM” value came out at 37%.

Consider `Cc1cc(-c2cccc3c2CCC(c2cccc(OC(F)(F)C(F)F)c2)N3CC(O)C(F)(F)F)ccc1Cl` (stereo not drawn) [Compound 6, 3-{5-(4-Chloro-3-methyl-phenyl)-2-[3-(1,1,2,2-tetrafluoro-ethoxy)-phenyl]-3,4-dihydro-2H-quinolin-1-yl}-1,1,1-trifluoro-propan-2-ol], for which the “% Inhibition @ 1 μM” value is 42%.

Turning to `C[C@@H](O)CN1c2cccc(-c3cccc(Cl)c3)c2CC[C@@H]1c1cccc(OC(F)(F)F)c1` [Compound 40], the “% Inhibition @ 1 μM” value turned out to be 32%, the inhibition at 1 µM is 37% and the half-inhibitory concentration (IC50) stood at 150 nM.

For `OC(CN1c2cccc(-c3cccc(OC(F)(F)F)c3)c2CCC1c1cccc(Cl)c1)C(F)(F)F` (stereo not drawn) [Compound 30, 3-[2-(3-Chloro-phenyl)-5-(3-trifluoromethoxy-phenyl)-3,4-dihydro-2H-quinolin-1-yl]-1,1,1-trifluoro-propan-2-ol], the “% Inhibition @ 1 μM” value came out at 13%.

`O=C(CN1CCOCC1)N1c2cccc(-c3cccc(OC(F)(F)F)c3)c2CCC1c1cccc(OC(F)(F)F)c1` (stereo not drawn) [Compound 88, 1-[2,5-Bis-(3-trifluoromethoxy-phenyl)-3,4-dihydro-2H-quinolin-1-yl]-2-morpholin-4-yl-ethanone]: the inhibition at 1 µM was determined as 0%.

With `COc1cccc(C2CCc3c(-c4cccc(OC(F)(F)F)c4)cccc3N2CC(O)C(F)(F)F)c1` (stereo not drawn) [Compound 25, 1,1,1-Trifluoro-3-[2-(3-methoxy-phenyl)-5-(3-trifluoromethoxy-phenyl)-3,4-dihydro-2H-quinolin-1-yl]-propan-2-ol], the “% Inhibition @ 1 μM” value was 59% and 74%; the midpoint of inhibition, the IC50, lay at 582 nM.

For the compound `CC(C)C(O)CN1c2cccc(-c3cccc(OC(F)(F)F)c3)c2CCC1c1cccc(OC(F)(F)F)c1` (stereo not drawn) [Compound 46, 1-[2,5-Bis-(3-trifluoromethoxy-phenyl)-3,4-dihydro-2H-quinolin-1-yl]-3-methyl-butan-2-ol], the “% Inhibition @ 1 μM” value is given as 22%.

On to `OC(CN1c2cccc(-c3ccc(OC(F)(F)F)cc3)c2CCC1c1cccc(OC(F)(F)C(F)F)c1)C(F)(F)F` (stereo not drawn) [Compound 7, 1,1,1-Trifluoro-3-[2-[3-(1,1,2,2-tetrafluoro-ethoxy)-phenyl]-5-(4-trifluoromethoxy-phenyl)-3,4-dihydro-2H-quinolin-1-yl]-propan-2-ol], for which the “% Inhibition @ 1 μM” value is on record as 61, 61%.

As to `OC(CN1c2cccc(-c3cccc(F)c3)c2CCC1c1cccc(OC(F)(F)F)c1)C(F)(F)F` (stereo not drawn) [Compound 57, 1,1,1-Trifluoro-3-[5-(3-fluoro-phenyl)-2-(3-trifluoromethoxy-phenyl)-3,4-dihydro-2H-quinolin-1-yl]-propan-2-ol], the “% Inhibition @ 1 μM” value is 92% and 97% and 91%; the half-maximal inhibitory concentration (IC50) was 59 nM and 253 nM.

Turning to `OC(CN1c2cccc(-c3cccc(OC(F)(F)F)c3)c2CCC1c1ccccc1)C(F)(F)F` (stereo not drawn) [Compound 20, 1,1,1-Trifluoro-3-[2-phenyl-5-(3-trifluoromethoxy-phenyl)-3,4-dihydro-2H-quinolin-1-yl]-propan-2-ol], the “% Inhibition @ 1 μM” value is recorded as 6%.

Take `OC(CF)CN1c2cccc(-c3cccc(OC(F)(F)F)c3)c2CCC1c1cccc(OC(F)(F)F)c1` (stereo not drawn) [Compound 49, 1-[2,5-Bis-(3-trifluoromethoxy-phenyl)-3,4-dihydro-2H-quinolin-1-yl]-3-fluoro-propan-2-ol]: the “% Inhibition @ 1 μM” value is 63% and 77%; the IC50 stood at 331 nM.

Take `OC(CN1c2cccc(Oc3cccc(Cl)c3Cl)c2CCC1c1cccc(OC(F)(F)C(F)F)c1)C(F)(F)F` (stereo not drawn) [Compound 86, 3-{5-(2,3-Dichloro-phenoxy)-2-[3-(1,1,2,2-tetrafluoro-ethoxy)-phenyl]-3,4-dihydro-2H-quinolin-1-yl}-1,1,1-trifluoro-propan-2-ol]: the inhibition at 1 µM turned out to be 67%.

Consider `OC(CN1c2cccc(-c3cccs3)c2CCC1c1cccc(OC(F)(F)C(F)F)c1)C(F)(F)F` (stereo not drawn) [Compound 75, 1,1,1-Trifluoro-3-{2-[3-(1,1,2,2-tetrafluoro-ethoxy)-phenyl]-5-thiophen-2-yl-3,4-dihydro-2H-quinolin-1-yl}-propan-2-ol], for which the “% Inhibition @ 1 μM” value is on record as 39%.

Turning to `CC(C)c1cccc(-c2cccc3c2CCC(c2cccc(OC(F)(F)C(F)F)c2)N3CC(O)C(F)(F)F)c1` (stereo not drawn) [Compound 67, 1,1,1-Trifluoro-3-{5-(3-isopropyl-phenyl)-2-[3-(1,1,2,2-tetrafluoro-ethoxy)-phenyl]-3,4-dihydro-2H-quinolin-1-yl}-propan-2-ol], the “% Inhibition @ 1 μM” value is recorded as 29%.

Turning to `CCC1CCc2c(-c3cccc(OC(F)(F)F)c3)cccc2N1CC(O)C(F)(F)F` (stereo not drawn) [Compound 36, 3-[2-Ethyl-5-(3-trifluoromethoxy-phenyl)-3,4-dihydro-2H-quinolin-1-yl]-1,1,1-trifluoro-propan-2-ol], the “% Inhibition @ 1 μM” value is 11% and 13%.

Take `OC(CN1c2cccc(Oc3cccc(Cl)c3Cl)c2CCC1c1cccc(OC(F)(F)C(F)F)c1)C(F)(F)F` (stereo not drawn) [Compound 87, 3-{5-(2,3-Dichloro-phenoxy)-2-[3-(1,1,2,2-tetrafluoro-ethoxy)-phenyl]-3,4-dihydro-2H-quinolin-1-yl}-1,1,1-trifluoro-propan-2-ol]: the “% Inhibition @ 1 μM” value was 86% and the midpoint of inhibition, the IC50, lay at 400 nM.

In the case of `O[C@H](CN1c2cccc(-c3cccc(OC(F)(F)F)c3)c2CC[C@H]1c1cccc(OC(F)(F)C(F)F)c1)C(F)(F)F` [Compound 81, (2S, αR)-3,4-Dihydro-2-[3-(1,1,2,2-tetrafluoroethoxy)phenyl]-5-[3-(trifluoromethoxy)phenyl]-α-(trifluoromethyl)-1(2H)-quinolineethanol], the “% Inhibition @ 1 μM” value is 36%, the inhibition at 1 µM was 46% and the IC50 was determined as 30 nM.

`OC(CN1c2cccc(-c3cccc(OC(F)(F)F)c3)c2CCC1c1cccc(OC(F)(F)C(F)F)c1)C(F)(F)F` (single isomer, unassigned) [Compound 1, 1,1,1-Trifluoro-3-[2-[3-(1,1,2,2-tetrafluoro-ethoxy)-phenyl]-5-(3-trifluoromethoxy-phenyl)-3,4-dihydro-2H-quinolin-1-yl]-propan-2-ol]: the inhibition at 1 µM was 100%; the 50% inhibitory concentration (IC50) is 7 nM and 25 nM and 30 nM.

`O[C@H](CN1c2cccc(-c3cccc(OC(F)(F)F)c3)c2CC[C@@H]1c1cccc(OC(F)(F)C(F)F)c1)C(F)(F)F` [Compound 79, (2R, αR)-3,4-Dihydro-2-[3-(1,1,2,2-tetrafluoroethoxy)phenyl]-5-[3-(trifluoromethoxy)phenyl]-α-(trifluoromethyl)-1(2H)-quinolineethanol]: the inhibition at 1 µM stood at 62% and the IC50 was greater than 3000 nM.

For `COc1cccc(-c2cccc3c2CCC(c2cccc(OC(F)(F)C(F)F)c2)N3CC(O)C(F)(F)F)c1` (stereo not drawn) [Compound 72, 1,1,1-Trifluoro-3-{5-(3-methoxy-phenyl)-2-[3-(1,1,2,2-tetrafluoro-ethoxy)-phenyl]-3,4-dihydro-2H-quinolin-1-yl}-propan-2-ol], the “% Inhibition @ 1 μM” value was 75% and 62%; the IC50 was 160 nM and 93 nM.

Values taken from patent publication US7928238B2, “1,2,3,4-tetrahydro-quinoline derivatives as CETP inhibitors” (Janssen Pharmaceutica NV, priority 2006, dated 2011).
